Laboratory results as given in ChEMBL document CHEMBL1201862, “PubChem BioAssay data set” (2004).
Active and inactive are the calls of the source.

Tests used:
Fatty acid synthase [1] = molecular target: T1, Fatty acid synthase (Homo sapiens, UniProt P49327); test: inhibition of human FAS-TE enzyme activity – biochemical, endpoint fluorescence intensity, uHTS hits, dose response (AID 624327); type: functional;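 further: fluorescence from hydrolysis of an O-methyl fluorescein acyl ester substrate by the enzyme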
T1 sequence (P49327 whole entry): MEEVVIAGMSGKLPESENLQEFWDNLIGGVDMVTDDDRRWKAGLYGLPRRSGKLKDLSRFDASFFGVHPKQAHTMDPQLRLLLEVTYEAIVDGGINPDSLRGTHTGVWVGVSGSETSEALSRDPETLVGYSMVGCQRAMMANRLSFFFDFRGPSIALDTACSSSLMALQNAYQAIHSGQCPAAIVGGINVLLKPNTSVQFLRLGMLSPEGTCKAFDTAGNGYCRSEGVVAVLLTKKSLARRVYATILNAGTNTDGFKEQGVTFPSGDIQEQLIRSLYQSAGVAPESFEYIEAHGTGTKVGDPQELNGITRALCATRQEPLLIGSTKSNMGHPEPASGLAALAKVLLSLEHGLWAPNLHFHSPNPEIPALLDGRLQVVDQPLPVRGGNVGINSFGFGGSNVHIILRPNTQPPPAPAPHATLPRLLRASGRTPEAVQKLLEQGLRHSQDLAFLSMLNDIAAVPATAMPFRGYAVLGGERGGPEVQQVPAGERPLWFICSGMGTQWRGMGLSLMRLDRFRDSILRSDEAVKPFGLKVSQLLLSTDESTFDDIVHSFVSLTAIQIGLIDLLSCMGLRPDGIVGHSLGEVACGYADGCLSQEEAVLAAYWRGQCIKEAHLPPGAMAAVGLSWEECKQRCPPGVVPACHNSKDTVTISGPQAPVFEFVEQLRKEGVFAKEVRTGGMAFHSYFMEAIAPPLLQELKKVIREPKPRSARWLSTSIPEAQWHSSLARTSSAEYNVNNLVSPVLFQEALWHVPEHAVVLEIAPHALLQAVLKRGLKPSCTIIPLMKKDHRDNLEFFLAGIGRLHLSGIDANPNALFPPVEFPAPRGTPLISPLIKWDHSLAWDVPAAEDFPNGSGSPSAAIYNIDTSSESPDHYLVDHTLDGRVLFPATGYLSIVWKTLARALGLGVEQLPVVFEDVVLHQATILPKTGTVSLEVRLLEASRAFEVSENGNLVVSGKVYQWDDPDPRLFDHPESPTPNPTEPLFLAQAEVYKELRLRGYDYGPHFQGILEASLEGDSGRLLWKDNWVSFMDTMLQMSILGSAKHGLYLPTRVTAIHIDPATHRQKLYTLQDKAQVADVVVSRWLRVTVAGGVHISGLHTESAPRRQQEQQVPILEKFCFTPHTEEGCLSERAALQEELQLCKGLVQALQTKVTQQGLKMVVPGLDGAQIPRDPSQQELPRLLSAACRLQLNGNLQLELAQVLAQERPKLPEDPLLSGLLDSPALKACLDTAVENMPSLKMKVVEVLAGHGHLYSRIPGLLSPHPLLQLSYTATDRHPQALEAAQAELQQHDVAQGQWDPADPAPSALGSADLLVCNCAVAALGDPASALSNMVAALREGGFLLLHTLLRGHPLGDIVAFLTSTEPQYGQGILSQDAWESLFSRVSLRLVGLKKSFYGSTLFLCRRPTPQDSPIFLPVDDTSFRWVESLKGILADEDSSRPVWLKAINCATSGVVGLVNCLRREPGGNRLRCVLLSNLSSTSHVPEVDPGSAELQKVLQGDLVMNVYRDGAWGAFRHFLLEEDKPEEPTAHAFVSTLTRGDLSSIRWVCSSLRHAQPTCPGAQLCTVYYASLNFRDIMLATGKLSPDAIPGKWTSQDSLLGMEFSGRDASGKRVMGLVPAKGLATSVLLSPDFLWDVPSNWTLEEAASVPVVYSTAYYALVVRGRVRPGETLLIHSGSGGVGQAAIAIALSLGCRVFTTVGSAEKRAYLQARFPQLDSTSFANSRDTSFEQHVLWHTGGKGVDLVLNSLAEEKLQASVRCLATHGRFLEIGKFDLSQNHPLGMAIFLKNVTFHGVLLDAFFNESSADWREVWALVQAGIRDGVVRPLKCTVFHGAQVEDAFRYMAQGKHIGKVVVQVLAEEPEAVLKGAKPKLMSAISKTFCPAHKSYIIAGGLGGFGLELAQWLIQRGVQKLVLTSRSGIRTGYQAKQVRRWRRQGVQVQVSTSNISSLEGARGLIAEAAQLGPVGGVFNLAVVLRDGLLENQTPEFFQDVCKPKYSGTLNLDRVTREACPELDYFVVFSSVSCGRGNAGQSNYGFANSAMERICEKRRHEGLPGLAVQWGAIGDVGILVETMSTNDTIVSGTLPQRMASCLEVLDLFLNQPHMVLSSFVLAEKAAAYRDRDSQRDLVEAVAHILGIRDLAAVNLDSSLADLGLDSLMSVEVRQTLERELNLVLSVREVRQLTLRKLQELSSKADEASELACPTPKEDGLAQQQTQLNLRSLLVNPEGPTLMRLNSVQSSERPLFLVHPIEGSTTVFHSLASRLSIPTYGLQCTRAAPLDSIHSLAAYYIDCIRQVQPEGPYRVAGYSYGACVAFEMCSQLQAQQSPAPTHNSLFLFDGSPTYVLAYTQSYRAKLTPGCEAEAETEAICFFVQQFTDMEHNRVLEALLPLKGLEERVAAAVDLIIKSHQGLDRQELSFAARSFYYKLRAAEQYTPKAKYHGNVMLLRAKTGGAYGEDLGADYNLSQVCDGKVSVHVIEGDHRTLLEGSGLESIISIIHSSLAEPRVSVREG

Fatty acid synthase [2] = molecular target: T1, Fatty acid synthase; test: inhibition of human FAS-TE enzyme activity – biochemical, kinetic fluorescence intensity, dose response (AID 624326); type: functional;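 further: rate of fluorescence rise from hydrolysis of a fluorogenic O-methyl fluorescein ester substrate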
[3] = molecular target: T2, Low molecular weight phosphotyrosine protein phosphatase (Homo sapiens, UniProt P24666); type: functional; details: read-out: IC50_Mean
T2 sequence (P24666 whole entry): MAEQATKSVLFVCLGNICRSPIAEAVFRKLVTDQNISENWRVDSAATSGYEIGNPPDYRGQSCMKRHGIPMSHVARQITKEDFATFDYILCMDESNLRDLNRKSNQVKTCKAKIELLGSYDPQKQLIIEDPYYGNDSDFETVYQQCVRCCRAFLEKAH

[4] = molecular target: T2, Low molecular weight phosphotyrosine protein phosphatase; type: functional; details: read-out: IC50_Mean; remark: listed apart in the source
[5] = molecular target: T3, Long-chain-fatty-acid--AMP ligase FadD28 (Mycobacterium tuberculosis, UniProt P9WQ59); test: Fluorescence polarization aasay to screen for inhibitors that compete for the binding of FadD28 to a bisubstrate Measured in Biochemical System Using Plate Reader - 2147-01_Inhibitor_Dose_CherryPick_Activity.; type: functional, Mycobacterium tuberculosis H37Rv
T3 sequence (P9WQ59 whole entry): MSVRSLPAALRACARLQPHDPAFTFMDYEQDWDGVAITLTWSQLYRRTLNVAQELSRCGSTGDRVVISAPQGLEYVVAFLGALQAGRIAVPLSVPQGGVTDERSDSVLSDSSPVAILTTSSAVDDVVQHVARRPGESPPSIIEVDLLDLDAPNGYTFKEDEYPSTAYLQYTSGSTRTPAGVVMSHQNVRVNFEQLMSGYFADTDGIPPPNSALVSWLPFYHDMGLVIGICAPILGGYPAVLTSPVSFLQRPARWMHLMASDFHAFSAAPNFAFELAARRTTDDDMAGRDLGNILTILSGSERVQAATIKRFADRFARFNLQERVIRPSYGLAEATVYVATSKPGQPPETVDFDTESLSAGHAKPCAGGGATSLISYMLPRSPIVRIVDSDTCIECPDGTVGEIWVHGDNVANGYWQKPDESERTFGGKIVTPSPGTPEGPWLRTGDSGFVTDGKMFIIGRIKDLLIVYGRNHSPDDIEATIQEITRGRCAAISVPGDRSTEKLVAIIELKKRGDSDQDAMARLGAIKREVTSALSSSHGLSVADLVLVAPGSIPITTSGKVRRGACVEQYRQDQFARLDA

[6] = THP-1 cell cytotoxicity, dose response, cytotoxicity control for non-replicating M. tuberculosis project (AID 489025); type: functional
Leucine aminopeptidase = molecular target: T4, Leucine aminopeptidase (Plasmodium falciparum 3D7, UniProt Q8IL11); test: P. falciparum M17LAP inhibitors, primary screen, biochemical, fluorogenic H-Leu-NHMec substrate, 1536-well (AID 1619); type: functional
T4 sequence (Q8IL11 whole entry): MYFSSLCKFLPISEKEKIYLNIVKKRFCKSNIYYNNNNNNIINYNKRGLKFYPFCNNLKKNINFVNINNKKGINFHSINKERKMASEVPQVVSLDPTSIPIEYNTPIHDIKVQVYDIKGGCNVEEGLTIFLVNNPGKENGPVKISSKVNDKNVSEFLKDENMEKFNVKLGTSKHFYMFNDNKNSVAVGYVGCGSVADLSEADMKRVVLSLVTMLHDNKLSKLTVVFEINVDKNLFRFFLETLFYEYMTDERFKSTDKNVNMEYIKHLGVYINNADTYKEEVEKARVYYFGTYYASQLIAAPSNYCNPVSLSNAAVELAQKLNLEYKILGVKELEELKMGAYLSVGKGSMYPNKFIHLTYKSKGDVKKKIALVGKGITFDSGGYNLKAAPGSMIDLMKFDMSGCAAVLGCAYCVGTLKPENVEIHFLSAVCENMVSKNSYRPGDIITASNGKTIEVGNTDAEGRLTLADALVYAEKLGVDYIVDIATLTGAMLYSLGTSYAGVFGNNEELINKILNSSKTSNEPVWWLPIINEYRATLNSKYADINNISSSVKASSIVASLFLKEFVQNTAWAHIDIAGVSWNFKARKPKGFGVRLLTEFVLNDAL

[7] = molecular target: T5, Type-1 angiotensin II receptor (Homo sapiens, UniProt P30556); test: antagonism of angiotensin II type 1 receptor – cell-based, uHTS hits, selectivity assay for APJ receptor antagonist project, dose response (AID 463214); type: functional;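 further: antagonist potency against angiotensin II stimulated AT1 response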
T5 sequence (P30556 whole entry): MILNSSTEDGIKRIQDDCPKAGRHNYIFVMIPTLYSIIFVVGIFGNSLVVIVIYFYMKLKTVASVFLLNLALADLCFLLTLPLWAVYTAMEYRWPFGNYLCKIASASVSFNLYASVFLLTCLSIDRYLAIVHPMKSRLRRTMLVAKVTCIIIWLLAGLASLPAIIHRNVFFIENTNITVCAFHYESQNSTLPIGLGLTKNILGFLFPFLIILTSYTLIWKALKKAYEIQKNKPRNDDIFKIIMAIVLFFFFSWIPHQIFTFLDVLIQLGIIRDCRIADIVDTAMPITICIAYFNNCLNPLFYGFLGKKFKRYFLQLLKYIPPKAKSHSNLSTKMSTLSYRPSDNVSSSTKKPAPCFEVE

Beta-galactosidase = Beta-galactosidase (Escherichia coli, UniProt Q8VNN2); test: PubChem AID 485352; type: functional
Chain of Beta-galactosidase (Q8VNN2 whole entry, the tested form may be a part): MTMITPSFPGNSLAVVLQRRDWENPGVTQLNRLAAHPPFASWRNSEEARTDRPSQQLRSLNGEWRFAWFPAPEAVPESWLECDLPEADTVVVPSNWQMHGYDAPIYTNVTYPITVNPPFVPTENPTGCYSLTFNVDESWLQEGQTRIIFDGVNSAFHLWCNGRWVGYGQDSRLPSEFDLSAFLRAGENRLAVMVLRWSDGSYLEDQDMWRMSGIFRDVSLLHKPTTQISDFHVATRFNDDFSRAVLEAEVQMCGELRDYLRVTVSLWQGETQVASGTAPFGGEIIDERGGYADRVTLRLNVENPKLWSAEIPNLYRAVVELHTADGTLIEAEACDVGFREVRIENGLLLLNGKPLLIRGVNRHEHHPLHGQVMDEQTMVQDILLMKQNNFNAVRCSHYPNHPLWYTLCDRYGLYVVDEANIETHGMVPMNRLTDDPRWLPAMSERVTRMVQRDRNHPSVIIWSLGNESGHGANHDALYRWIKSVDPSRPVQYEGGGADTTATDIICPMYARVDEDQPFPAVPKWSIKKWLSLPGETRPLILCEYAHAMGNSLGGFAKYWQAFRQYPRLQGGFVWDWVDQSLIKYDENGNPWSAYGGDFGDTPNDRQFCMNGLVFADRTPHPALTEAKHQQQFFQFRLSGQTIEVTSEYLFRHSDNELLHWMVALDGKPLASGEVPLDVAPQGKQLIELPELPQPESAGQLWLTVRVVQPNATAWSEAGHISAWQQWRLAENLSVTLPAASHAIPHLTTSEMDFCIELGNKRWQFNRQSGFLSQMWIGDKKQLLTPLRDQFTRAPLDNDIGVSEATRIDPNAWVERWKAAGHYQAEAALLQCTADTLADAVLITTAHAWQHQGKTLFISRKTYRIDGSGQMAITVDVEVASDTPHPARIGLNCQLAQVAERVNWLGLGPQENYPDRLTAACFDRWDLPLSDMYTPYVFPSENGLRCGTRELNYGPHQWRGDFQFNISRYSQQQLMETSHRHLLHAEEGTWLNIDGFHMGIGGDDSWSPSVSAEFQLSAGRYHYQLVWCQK

[8] = molecular target: T6, Carboxy-terminal domain RNA polymerase II polypeptide A small phosphatase 1 (Homo sapiens, UniProt Q9GZU7); test: CTDSP1 inhibitors, concentration-response, biochemical, absorbance readout, ultra-high-throughput screen actives (AID 540297); type: functional
T6 sequence (Q9GZU7 whole entry): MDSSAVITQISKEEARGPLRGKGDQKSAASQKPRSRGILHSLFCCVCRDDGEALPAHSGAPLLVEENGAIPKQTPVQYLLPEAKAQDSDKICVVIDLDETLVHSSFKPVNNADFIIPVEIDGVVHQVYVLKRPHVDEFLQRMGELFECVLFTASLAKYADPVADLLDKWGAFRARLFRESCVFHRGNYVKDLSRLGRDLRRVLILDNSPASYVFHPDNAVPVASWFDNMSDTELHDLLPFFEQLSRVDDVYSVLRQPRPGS

[9] = activation of miR-122 Renilla sensor silencing – cell-based, Huh7 psiCHECK-miR122, Renilla luciferase, cherry-picked, dose response (AID 651956); type: functional;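 further: huh7 hepatoma cells stably carrying a psiCHECK-2 miR-122 sensor plasmid; renilla luciferase signal reporting endogenous miR-122 activity after 48 h compound exposure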
Cytochrome P450 2C9 = Cytochrome P450 2C9 (Homo sapiens, UniProt P11712)
Chain of Cytochrome P450 2C9 (P11712 whole entry): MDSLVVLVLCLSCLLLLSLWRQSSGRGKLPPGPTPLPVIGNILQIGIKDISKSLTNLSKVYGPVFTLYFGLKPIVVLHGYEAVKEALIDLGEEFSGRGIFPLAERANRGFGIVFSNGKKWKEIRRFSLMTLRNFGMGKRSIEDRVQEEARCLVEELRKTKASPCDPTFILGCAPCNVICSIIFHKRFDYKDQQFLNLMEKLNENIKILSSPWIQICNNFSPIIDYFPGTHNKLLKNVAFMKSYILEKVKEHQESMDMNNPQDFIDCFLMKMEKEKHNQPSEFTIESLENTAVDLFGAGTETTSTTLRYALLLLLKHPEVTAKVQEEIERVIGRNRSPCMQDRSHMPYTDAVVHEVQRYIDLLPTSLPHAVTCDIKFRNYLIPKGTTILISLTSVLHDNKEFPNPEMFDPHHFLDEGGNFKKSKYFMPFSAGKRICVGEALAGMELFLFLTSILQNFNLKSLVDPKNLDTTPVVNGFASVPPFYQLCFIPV

[10] = molecular target: T7, Replicative DNA helicase DnaB (Mycobacterium tuberculosis, UniProt P9WMR3); test: DnaB intein splicing inhibitors, dose response, biochemical, cell-free fluorescence (AID 449749); type: functional
T7 sequence (P9WMR3 whole entry): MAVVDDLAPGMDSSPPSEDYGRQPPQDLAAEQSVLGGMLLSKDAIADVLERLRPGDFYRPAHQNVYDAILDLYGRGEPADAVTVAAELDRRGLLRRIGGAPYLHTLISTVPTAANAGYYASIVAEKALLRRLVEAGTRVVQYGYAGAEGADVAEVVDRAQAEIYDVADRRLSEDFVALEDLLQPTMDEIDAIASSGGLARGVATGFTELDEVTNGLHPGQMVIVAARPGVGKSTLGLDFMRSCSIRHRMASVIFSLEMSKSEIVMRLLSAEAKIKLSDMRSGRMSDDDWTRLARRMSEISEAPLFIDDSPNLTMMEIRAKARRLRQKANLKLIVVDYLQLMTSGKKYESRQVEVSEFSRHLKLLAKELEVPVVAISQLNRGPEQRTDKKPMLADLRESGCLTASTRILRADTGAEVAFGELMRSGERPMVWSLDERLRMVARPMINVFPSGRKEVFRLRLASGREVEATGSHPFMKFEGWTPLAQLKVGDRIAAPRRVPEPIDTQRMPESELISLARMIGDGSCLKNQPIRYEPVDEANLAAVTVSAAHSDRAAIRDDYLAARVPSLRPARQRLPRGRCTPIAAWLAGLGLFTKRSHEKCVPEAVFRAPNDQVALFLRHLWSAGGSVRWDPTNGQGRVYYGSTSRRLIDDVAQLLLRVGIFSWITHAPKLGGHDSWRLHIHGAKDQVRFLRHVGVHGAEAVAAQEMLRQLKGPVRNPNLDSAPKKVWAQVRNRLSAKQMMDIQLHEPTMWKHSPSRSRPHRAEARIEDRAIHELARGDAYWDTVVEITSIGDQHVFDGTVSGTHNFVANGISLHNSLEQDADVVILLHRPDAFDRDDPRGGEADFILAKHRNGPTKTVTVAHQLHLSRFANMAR

[11] = molecular target: T8, Ubiquitin-conjugating enzyme E2 N (Homo sapiens, UniProt P61088); type: functional;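 further: Dose-response confirmation in a TR-FRET assay detecting UBC13-driven polyubiquitin chain formation, inhibition measured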
T8 sequence (P61088 whole entry): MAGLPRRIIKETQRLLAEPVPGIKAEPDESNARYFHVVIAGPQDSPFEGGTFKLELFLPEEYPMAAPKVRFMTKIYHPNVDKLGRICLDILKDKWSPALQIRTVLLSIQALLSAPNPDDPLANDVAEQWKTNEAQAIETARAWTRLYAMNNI

[12] = Luminescence Cell-Based Dose Retest to Confirm Inhibitors of Cancer Stem Cells. [Related pubchem assays (depositor defined):AID2717, AID2721]; type: functional; details: Homo sapiens
Protein RecA = molecular target: T9, Protein RecA (Mycobacterium tuberculosis, UniProt P9WHJ3); test: Fluorescence Cell-Free Homogeneous Dose Retest to Identify Inhibitors of RecA-Intein Splicing Activity. [Related pubchem assays (depositor defined):AID2097, AID2223, AID489010, AID492950]; type: functional
T9 sequence (P9WHJ3 whole entry): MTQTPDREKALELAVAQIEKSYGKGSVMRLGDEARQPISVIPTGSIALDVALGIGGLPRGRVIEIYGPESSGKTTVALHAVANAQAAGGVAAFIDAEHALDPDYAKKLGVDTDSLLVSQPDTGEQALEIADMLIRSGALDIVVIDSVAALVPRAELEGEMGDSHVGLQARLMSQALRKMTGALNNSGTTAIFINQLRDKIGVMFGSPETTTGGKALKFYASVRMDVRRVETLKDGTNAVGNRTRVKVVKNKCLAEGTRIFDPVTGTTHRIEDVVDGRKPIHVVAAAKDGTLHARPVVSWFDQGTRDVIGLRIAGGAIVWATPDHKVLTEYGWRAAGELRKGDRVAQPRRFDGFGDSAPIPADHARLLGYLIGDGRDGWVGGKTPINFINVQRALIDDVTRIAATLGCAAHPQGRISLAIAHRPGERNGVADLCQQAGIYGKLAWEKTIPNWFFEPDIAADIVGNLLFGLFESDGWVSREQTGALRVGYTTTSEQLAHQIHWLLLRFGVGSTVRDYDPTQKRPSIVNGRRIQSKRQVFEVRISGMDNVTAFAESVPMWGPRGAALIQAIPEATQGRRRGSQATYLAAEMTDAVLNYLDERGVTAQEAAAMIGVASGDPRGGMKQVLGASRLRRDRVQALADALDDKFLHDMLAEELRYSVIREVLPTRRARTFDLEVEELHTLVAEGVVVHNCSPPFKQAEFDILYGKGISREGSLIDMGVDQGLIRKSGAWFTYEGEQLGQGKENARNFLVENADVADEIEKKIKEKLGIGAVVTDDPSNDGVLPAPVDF

[13] = molecular target: T10, Hepatocyte nuclear factor 4-alpha (Homo sapiens, UniProt P41235); type: functional, cell-based;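 further: biochemical luminescence-based dose-response counterscreen measuring inhibition of HNF4 dimerization, run alongside a screen for blockers of ABHD5–perilipin-5 interaction; split luciferase complementation of HNF4 fusion proteins in cell lysate measuring dimerization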
T10 sequence (P41235 whole entry): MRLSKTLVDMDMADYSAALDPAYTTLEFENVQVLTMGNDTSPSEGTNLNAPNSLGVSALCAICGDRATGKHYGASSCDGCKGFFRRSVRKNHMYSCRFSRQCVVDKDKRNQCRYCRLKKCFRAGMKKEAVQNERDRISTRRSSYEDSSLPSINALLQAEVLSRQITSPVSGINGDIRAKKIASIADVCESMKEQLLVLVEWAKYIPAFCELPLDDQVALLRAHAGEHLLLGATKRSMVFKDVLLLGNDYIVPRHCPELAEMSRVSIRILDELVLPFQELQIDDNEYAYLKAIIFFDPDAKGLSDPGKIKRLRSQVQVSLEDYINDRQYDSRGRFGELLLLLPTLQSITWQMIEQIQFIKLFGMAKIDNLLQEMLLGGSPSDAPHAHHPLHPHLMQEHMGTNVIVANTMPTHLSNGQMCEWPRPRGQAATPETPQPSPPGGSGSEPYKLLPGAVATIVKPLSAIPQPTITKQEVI

O=C(COC(=O)c1cc([N+](=O)[O-])ccc1N1CCOCC1)Nc1ncc(Cl)cc1Cl
IC50 (Fatty acid synthase [1]): 8.79 µM (active) | IC50 (Fatty acid synthase [2]): 7.24 µM (active)

CCCN(CC(=O)Nc1ccc(F)c(F)c1F)C(=O)c1cc([N+](=O)[O-])ccc1N1CCOCC1
IC50 (Fatty acid synthase [1]): 14.9 µM (active) | IC50 (Fatty acid synthase [2]): 10.6 µM (active)

O=C(O)CCCCCNc1nc(-c2ccccc2)nc2ccccc12
IC50 [3]: 12 µM (active) | IC50 [4]: 26.9 µM (inactive)

Cc1ccc(NC(=O)CCNS(=O)(=O)c2cc(Br)cnc2N)cc1Cl
IC50 (Fatty acid synthase [1]): 10.3 µM (active) | IC50 (Fatty acid synthase [2]): 16.1 µM (active)

O=C(Nc1sc2c(c1C(=O)O)CCCCC2)c1ccccc1F
AC50 [5]: > 100 µM (inactive) | CC50 [6]: > 40 µM (active) | IC50 (Leucine aminopeptidase): 71 µM (active)

COc1ccc(/C=C/C(=O)NC(=S)Nc2cc([N+](=O)[O-])ccc2O)cc1OC
IC50 [7]: > 40 µM (not active) | IC50 [3]: 17.8 µM (active) | EC50 (Beta-galactosidase): > 40 µM (inactive) | IC50 [8]: 4.85 µM (active) | IC50 [4]: > 80 µM (inactive)

O=C(c1ccc(CNc2c(NC3CCCCC3)c(=O)c2=O)cc1)N1CCc2ccccc21
AC50 [9]: 0.583 µM (active)

CCNC(=O)C[C@H]1CC[C@@H]2[C@@H](COc3ccc(NC(=O)Nc4cccc(Cl)c4)cc3C(=O)N2C)O1
AC50 [9]: 42 µM (active)

COCC(=O)N(C)C[C@H]1Oc2cc(-c3ccccc3F)ccc2S(=O)(=O)N([C@H](C)CO)C[C@H]1C
AC50 [9]: 2.56 µM (active)

CCN(CC)CCOc1ccc(/C(=C(\Cl)c2ccccc2)c2ccccc2)cc1.O=C(O)CC(O)(CC(=O)O)C(=O)O [CLOMIPHENE CITRATE]
AC50 (Cytochrome P450 2C9): inconclusive | AC50 [10]: 3.79 µM (active) | IC50 [11]: > 20 µM (inactive) | AC50 [12]: 0.997 µM (active) | EC50 (Protein RecA): 12.1 µM (active) | IC50 [13]: 10.8 µM (inactive)
